Assay results taken from PubChem BioAssay AID1996.
In brackets after ≈: the same amount, converted by molar mass.

conditions: buffer; pH 7.4; 200.0 µM

Row | SMILES | solubility kinetic
1 | CCC(C(=O)N/N=C(\C)c1cccnc1)c1ccccc1 (stereo not drawn) | > 42.2 µg/mL
2 | CN(C)CCCNC(=O)N1c2ccccc2Sc2ccccc21 | > 49.1 µg/mL
3 | Cc1ccc(OCC(=O)Nc2ccccc2F)cc1 | 4.6 µg/mL (≈ 17.7 µM)
4 | CC1CCN(C2=NC(=O)/C(=C/c3ccccc3F)S2)CC1 | 14.3 µg/mL (≈ 47 µM)
5 | O=C(O)c1cccc(NC(=O)c2ccccc2NC(=O)c2ccco2)c1 | > 52.5 µg/mL
6 | CCCCn1c(N)c(N(C)C(=O)c2c(C)nn(-c3ccccc3)c2C)c(=O)[nH]c1=O | > 61.6 µg/mL
7 | COc1ccc(NC(=S)NCc2ccc(F)cc2)c(OC)c1 | > 48.1 µg/mL
8 | CNC(=O)c1c(NC(=O)C2=COCCO2)sc(C)c1C | > 44.5 µg/mL
9 | COc1ccc(OCC(O)CN2CC(C)OC(C)C2)cc1.Cl (stereo not drawn) | > 49.8 µg/mL
10 | CC1CCN(Cc2nc(-c3ccc(Cl)cc3)no2)CC1 | 2.2 µg/mL (≈ 7.54 µM)
11 | Clc1ccc(-c2ccc(CN3CCCCC3)o2)cc1 | 30.1 µg/mL (≈ 109 µM)
12 | O=C1c2ccccc2C(=O)N1c1cc([N+](=O)[O-])ccn1 | 29.2 µg/mL (≈ 108 µM)
13 | Cc1ccc(Nc2cc(C)c3ccc(O)cc3n2)cc1C.Cl | 11.1 µg/mL
14 | CC(=O)Nc1ccc(S(=O)(=O)Nc2ccc3ccccc3n2)cc1 | 14.2 µg/mL (≈ 41.6 µM)
15 | O=C1c2cccc3cccc(c23)C(=O)N1c1ccccc1Cl | 0.8 µg/mL (≈ 2.6 µM)
16 | COc1ccccc1OCC(=O)Nc1nc2c(s1)CCCC2 | 8 µg/mL (≈ 25.1 µM)
17 | Cc1cc(C)c(NC(=O)C2CC3CCC2C3)c(C)c1 (stereo not drawn) | 10.1 µg/mL (≈ 39.2 µM)
18 | CC(C)C(=O)Nc1cc2c3c(c1)CCN3C(=O)CC2 | 38.7 µg/mL (≈ 150 µM)
19 | Cc1ccc2nc(-c3ccccc3)oc(=O)c2c1 | 0.9 µg/mL (≈ 3.79 µM)
20 | CN(Cc1ccccc1)C(=O)COC(=O)c1ccc(Br)c(S(=O)(=O)N2CCOCC2)c1 | 36.7 µg/mL (≈ 71.8 µM)

Row | SMILES | solubility kinetic
21 | C=CCNC(=O)CC1Nc2c3ccccc3nc(=S)n2C1=O (stereo not drawn) | > 47.2 µg/mL
22 | O=C1CCCN1C(=O)COc1cc(F)ccc1[N+](=O)[O-] | > 42.3 µg/mL
23 | CCOCCc1c(O)nc(SCC)[nH]c1=O | > 36.6 µg/mL
24 | CC1(C)C(=O)Nc2ccccc2N1C(=O)COC(=O)Cc1ccc(Cl)c(Cl)c1 | 10.1 µg/mL (≈ 24 µM)
25 | COc1ccccc1C(=O)Nc1ccc2c(c1)n(C)c(=O)n2C | 43.6 µg/mL (≈ 140 µM)
26 | Cc1nn(C)c(C)c1/C=C(/C(=O)C(C)C)n1cncn1 | > 41 µg/mL
27 | Cc1ccc(NS(=O)(=O)N2CCOCC2)c(C)c1 | > 40.6 µg/mL
28 | CCOC(=O)C1CCN(C(=O)COC(=O)c2c(C)c(CC)nc3ccccc23)CC1 | 20.3 µg/mL (≈ 49.2 µM)
29 | NS(=O)(=O)c1ccc(NC(=O)c2c(F)cccc2Cl)cc1 | 13.3 µg/mL (≈ 40.5 µM)
30 | O=C(Nc1ccccc1O)c1csc2c1CCCC2 | 2.2 µg/mL (≈ 8.05 µM)
31 | COC(=O)CNC(=O)CCc1nnc(C2(c3ccc(Cl)cc3)CCC2)o1 | > 56.7 µg/mL
32 | Cc1ccc(S(=O)(=O)NCc2ccccc2)cc1 | 25.9 µg/mL (≈ 99.1 µM)
33 | CCOC(=O)c1c(O)c2cc(Cl)ccc2n(CC)c1=O | > 44.4 µg/mL
34 | Cc1cc(C)c(S(=O)(=O)NCCCn2ccnc2)cc1C | > 46.1 µg/mL
35 | CCc1sc(C(=O)Nc2nc(C)cs2)cc1C | 7.3 µg/mL (≈ 27.4 µM)
36 | CCN(C(=O)C(C)Sc1nnc(-c2ccncc2)n1C)C1CCCCC1 (stereo not drawn) | > 56 µg/mL
37 | Cc1snc(SCc2c(F)cccc2Cl)c1C#N | < 0.3 µg/mL
38 | c1csc(-c2noc(CN3CCOCC3)n2)c1 | 36.6 µg/mL (≈ 146 µM)
39 | COc1ccc(C(=O)Nc2cc(S(=O)(=O)N3CCCC3)ccc2Cl)cc1 | 9.2 µg/mL (≈ 23.3 µM)
40 | COc1ccc(-n2c(N)cc(=O)[nH]c2=O)cc1 | > 35 µg/mL

Row | SMILES | solubility kinetic
41 | N#Cc1ccc(C(=O)Nc2ccc3ccccc3c2)cc1 | 0.4 µg/mL (≈ 1.47 µM)
42 | CCN1CCN(c2nc3c(c(=O)[nH]2)CCC3)CC1 | 36.1 µg/mL (≈ 145 µM)
43 | CCCCC(=O)OCc1nc2ccccc2s1 | 11.2 µg/mL (≈ 44.9 µM)
44 | CC(=O)N=C1SC2CS(=O)(=O)CC2N1Cc1ccc(C)cc1 (stereo not drawn) | 19.7 µg/mL (≈ 58.2 µM)
45 | O=C(NC1(C(F)(F)F)N=C2SCCN2C1=O)c1ccccc1F (stereo not drawn) | 50.5 µg/mL (≈ 145 µM)
46 | COc1cccc(CNc2ccccn2)c1O | > 34.5 µg/mL
47 | Cc1ccc(C(=O)CCC(=O)Nc2cccc(C)c2)cc1 | < 0.6 µg/mL
48 | Cc1nc(NC(=O)CN2CCOCC2)sc1C(=O)N(C)C | 40 µg/mL (≈ 128 µM)
49 | CC1CC(=O)Nc2ccccc2N1C(=O)Nc1ccc(F)cc1 (stereo not drawn) | > 47 µg/mL
50 | CCOC(=O)Cc1csc(NC(=O)CCC(=O)O)n1 | > 42.9 µg/mL
51 | CC(=O)c1ccc(NC(=O)N2CCN(c3ccc(C)cc3)C(C)C2)cc1 (stereo not drawn) | 39.4 µg/mL (≈ 112 µM)
52 | COc1cc(/C=C/C(=O)OCC(=O)NC(=O)NCc2ccco2)ccc1OC(F)F | 7.1 µg/mL (≈ 16.7 µM)
53 | CCn1cc(CCC(=O)NCCN2CCOCC2)c2ccccc21 | 48.9 µg/mL (≈ 148 µM)
54 | CC(=O)Nc1ccc(NS(=O)(=O)c2cc([N+](=O)[O-])ccc2C)cc1 | 2.6 µg/mL (≈ 7.44 µM)
55 | Cc1ccc(NC(=O)CNCc2ccccc2)c(Br)c1 | 34.3 µg/mL (≈ 103 µM)
56 | O=C(Nc1cccc(-c2cscn2)c1)C1CCN(Cc2ccccn2)CC1 | > 56.8 µg/mL
57 | Cc1[nH]c2ccccc2c1CN1CCN(c2ccccn2)CC1 | 44.4 µg/mL (≈ 145 µM)
58 | Cc1cc([N+](=O)[O-])c2c(c1C)C1C=CCC1C(c1ccccn1)N2 (stereo not drawn) | 9.3 µg/mL (≈ 28.9 µM)
59 | COc1ccc(C(=O)O)cc1S(=O)(=O)NCCN(C)C | 44.1 µg/mL (≈ 146 µM)
60 | NC(=O)C1CCN(C(=O)CC2(CC(=O)O)CCCC2)CC1 | > 44.5 µg/mL

The remaining lines, values ahead:

Row | solubility kinetic | SMILES
61 | 1.5 µg/mL (≈ 4.9 µM) | O=C(Nc1ccc(Nc2ccccc2)cc1)c1ccccc1F
62 | 50.3 µg/mL (≈ 129 µM) | CN(CC(=O)Nc1ccccc1Cl)C(=O)CN1C(=O)C2CC=CCC2C1=O (stereo not drawn)
63 | 10.6 µg/mL (≈ 27.5 µM) | Cc1noc(C)c1C(=O)OC(C)C(=O)NC(C)c1ccc(Cl)cc1Cl (stereo not drawn)
64 | > 63.1 µg/mL | CCOc1ccc(NC(=O)COC(=O)Cn2nc(C)c([N+](=O)[O-])c2C)cc1OCC
65 | 9.6 µg/mL (≈ 33.5 µM) | CC1(C)CC(=O)N(c2ccc(Cl)c(Cl)c2)C(=O)C1
66 | 26.3 µg/mL (≈ 114 µM) | O=C(c1c[nH]c2ccccc12)N1CCOCC1
67 | 4.5 µg/mL (≈ 15 µM) | Cc1cccc(Nc2nc(-c3ccc(O)c(O)c3)cs2)n1
68 | > 53.6 µg/mL | CC(CC(=O)O)CC(=O)Nc1cc(C(F)(F)F)cc(C(F)(F)F)c1 (stereo not drawn)
69 | 13.4 µg/mL (≈ 33.6 µM) | COC(=O)c1ccc(CNC(=O)COC(=O)/C=C/c2ccc(O)c(OC)c2)cc1
70 | 39.4 µg/mL (≈ 106 µM) | Cc1cccc(NC(=S)N2CCCN(c3ncccc3[N+](=O)[O-])CC2)c1
71 | > 44.5 µg/mL | O=C(NCCS(=O)(=O)NC1CCCC1)c1ccccc1
72 | > 37.2 µg/mL | COC(=O)N1CCN(c2ccc(C)cc2)C(C)C1 (stereo not drawn)
73 | 15.2 µg/mL (≈ 42.9 µM) | O=C(NCCc1c[nH]c2ccccc12)c1cc([N+](=O)[O-])cc([N+](=O)[O-])c1
74 | < 0.6 µg/mL | O=c1c(NCCc2ccccc2)c(-c2ccccc2)c1=O
75 | > 56.8 µg/mL | Cc1ccc(Nc2nnc(SCC(=O)NCC3CCCO3)s2)cc1C (stereo not drawn)
76 | > 42.5 µg/mL | CC1(C)CC(NC(=O)c2c(N)no[n+]2[O-])CC(C)(C)N1
77 | 0.9 µg/mL (≈ 2.79 µM) | COCCNc1nc(N)c([N+](=O)[O-])c(Nc2ccc(F)cc2)n1
78 | > 54.1 µg/mL | CCNC(=O)c1ccc(NS(=O)(=O)c2ccc3[nH]c(=O)[nH]c3c2)cc1
79 | < 0.3 µg/mL | Cc1ccc(CNC(=O)Nc2ccc(Cl)cc2)cc1
80 | 8.2 µg/mL (≈ 24.1 µM) | Cc1ccc(NC(=O)CN2C(=S)NC(C)(C)CC2C)cc1Cl (stereo not drawn)

Row | solubility kinetic | SMILES
81 | 9.8 µg/mL (≈ 39.8 µM) | Cc1ccccc1Oc1ncnc(N)c1[N+](=O)[O-]
82 | 33.8 µg/mL (≈ 145 µM) | O=Cc1ccccc1OCCN1CCCC1=O
83 | > 47.3 µg/mL | O=C(Nc1ccsc1C(=O)O)c1cccc(C(F)(F)F)c1
84 | 19.7 µg/mL (≈ 69 µM) | Cc1ccc(CNC(=O)CSCc2ccccc2)cc1
85 | > 60.7 µg/mL | O=C(COC(=O)c1ccc(O)cc1)Nc1ccc(S(=O)(=O)N2CCCC2)cc1
86 | 35.5 µg/mL (≈ 112 µM) | Cn1c(=O)n(C)c2cc(NS(=O)(=O)c3ccccc3)ccc21
87 | 0.8 µg/mL (≈ 2.35 µM) | CC(=O)c1cccc(NC(=O)CCn2c(=S)oc3ccccc32)c1
88 | > 46.6 µg/mL | COc1ccc(N2CCN(CC(=O)c3ccccc3)CC2)cc1
89 | > 52 µg/mL | COc1ccc(Cl)cc1NC(=O)C1CCN(S(C)(=O)=O)CC1
90 | > 35.1 µg/mL | O=C1CNC(=S)N1CCCc1ccccc1
91 | > 56.7 µg/mL | CC(NC(=O)CN(C)CC(=O)Nc1ccc(Cl)cc1)c1ccc(F)cc1 (stereo not drawn)
92 | > 53.6 µg/mL | CCOC(=O)C(=O)NCC(c1ccco1)S(=O)(=O)c1cccs1 (stereo not drawn)
93 | 10.5 µg/mL (≈ 34.6 µM) | Brc1ccccc1C1N=C(c2ccccc2)NO1 (stereo not drawn)
94 | 13.2 µg/mL (≈ 38.8 µM) | O=C(COC(=O)CC1CC2CCC1C2)Nc1ccc(F)cc1Cl (stereo not drawn)
95 | > 42.7 µg/mL | COc1ccc(C(=O)NCCN2CCCC2)cc1.Cl
96 | > 33.8 µg/mL | Cc1ccc(-c2nc3ncccc3n2O)cc1
97 | < 0.3 µg/mL | Nc1cccc2c1C(=O)N(Cc1cccc(Cl)c1)C2=O
98 | > 39 µg/mL | CC(CO)NCC12CC3CC(CC(C3)C1)C2.Cl (stereo not drawn)
99 | 5.3 µg/mL (≈ 15.3 µM) | CC1CCCC(NC(=O)COC(=O)c2ccc3c(c2)OCCO3)C1C (stereo not drawn)
100 | > 35.1 µg/mL | COc1cccc(CSc2nccn2C)c1

Row | solubility kinetic | SMILES
101 | > 58.7 µg/mL | COc1cc(NC(=O)C(c2ccccc2)c2ccccc2)c(C(=O)O)cc1OC
102 | 12.9 µg/mL (≈ 38.9 µM) | Cc1nc(NC(=O)/C=C/c2ccccc2)sc1C(=O)NCCO
103 | 40.9 µg/mL (≈ 142 µM) | CCN(CC)CC(=O)NCC1(c2ccccc2)CCCC1
104 | 1.5 µg/mL (≈ 4.42 µM) | Cc1ccc2[nH]c(=O)cc(C(=O)OCC(=O)c3ccc(F)cc3)c2c1
105 | 8.9 µg/mL (≈ 26 µM) | NC(=O)COc1ccc(NC(=O)CC23CC4CC(CC(C4)C2)C3)cc1
106 | > 52.9 µg/mL | CCOc1ncccc1C(=O)Nc1c(C)n(C)n(-c2ccccc2)c1=O
107 | 39.7 µg/mL (≈ 145 µM) | CCCN1CCC(NC(=O)Cc2ccc(C)cc2)CC1
108 | > 33.9 µg/mL | Cc1ccc(NC(=O)c2cccnc2)cc1C
109 | 16.3 µg/mL (≈ 55.3 µM) | Cc1cc(NC(=O)COC(=O)c2ccccc2Cl)no1
110 | 39.8 µg/mL (≈ 133 µM) | COc1cc2c(C#N)c(N3CCCCC3)nc(N)c2c(N)n1
111 | > 56.9 µg/mL | CC1CCCN(C(=O)CN2C(=O)NC(C)(c3ccc4ccccc4c3)C2=O)C1 (stereo not drawn)
112 | 38 µg/mL (≈ 149 µM) | O=C(NCc1ccc2c(c1)OCO2)c1ccccc1
113 | 7.8 µg/mL (≈ 18.2 µM) | O=C(Nc1ccccc1Br)C1CCN(S(=O)(=O)c2cccs2)CC1
114 | 22.1 µg/mL (≈ 78 µM) | Cc1cccc(NC(=O)c2ccc3c(c2)OCCO3)c1C
115 | 3.7 µg/mL (≈ 8.99 µM) | CC(C)(C)NC(=O)CSc1nc2cc(S(=O)(=O)N3CCCCC3)ccc2o1
116 | 4.1 µg/mL (≈ 14.3 µM) | O=C(Nc1ccc2c(c1)OCO2)c1noc2c1CCCC2
117 | > 36.2 µg/mL | COCC(=O)Nc1ccccc1-c1ccccc1
118 | 2.4 µg/mL (≈ 6.66 µM) | CCOc1ccc(Nc2nc(N)c([N+](=O)[O-])c(N3CCOCC3)n2)cc1
